“Also recorded” adds a separate entry of the source.
Experiments:
[1] = test system: superficial dorsal horn neurons; experiment: In vivo single-unit recording, id histamine-evoked firing, spinal superfusion of antagonists; set-up: species or system mice
Protocol: (§1) Akiyama T et al., The Journal of neuroscience: the official journal of the Society for Neuroscience 29(20):6691-6699 (2009)]. Anesthesia was induced by sodium pentobarbital (60 mg/kg ip) and maintained by supplemental injections (10-20 mg/kg/hr). […] A tungsten microelectrode recorded single-unit activity in the lumbar spinal cord. A chemical search strategy [Akiyama T et al., Journal of neurophysiology 102(4):2176-2183 2009; […] Following mechanical stimulation, histamine (50 μg) was injected id within the same receptive field at a different location via a separate injection cannula. Following the id histamine injection, we tested the effects of antagonists for the receptors of NK1, GRP, or AMPA/kainate in the same manner as described above for chloroquine. […] Following the AITC application, we tested the effects of the NK-1 receptor antagonist, the AMPA/kainate receptor antagonist, or a combination of both antagonists in the same manner as described above for chloroquine. Action potentials were recorded to a computer and counted using Chart software (AD Instruments, Colorado Springs Colo.) and Spike2 software (CED Instruments). […] Mean peak responses elicited by noxious pinch were compared by one way repeated-measures ANOVA followed by post-hoc Bonferroni test, with p<0.05 set as significant. At the end of each experiment, an electrolytic lesion was made at the spinal cord recording site.

[2] = test system: superficial dorsal horn neurons; experiment: Baseline activity of superficial dorsal horn neurons before and after antagonist application; assay type: in vivo, mice; conditions: ± SEM
Protocol: The single-unit recording from the lumbar spinal cord was conducted as previously detailed [Akiyama T et al., Journal of neurophysiology 102(4):2176-2183 (2009); Akiyama T et al., The Journal of neuroscience: the official journal of the Society for Neuroscience 29(20):6691-6699 (2009)]. Anesthesia was induced by sodium pentobarbital (60 mg/kg ip) and maintained by supplemental injections (10-20 mg/kg/hr). A gravity-driven perfusion system allowed artificial cerebrospinal fluid (Krebs: 117 mM NaCl, 3.6 mM KCl, 2.5 mM CaCl2, 1.2 mM MgCl2, 1.2 mM NaH2PO4, 25 mM NaHCO3 and 11 mM glucose which was equilibrated with 95% 02 and 5% CO2 at 37° C.) to be superfused continually over the exposed lumbosacral spinal cord [Akiyama T et al., PloS one 6(7):e22665 (2011)]. A tungsten microelectrode recorded single-unit activity in the lumbar spinal cord. A chemical search strategy [Akiyama T et al., Journal of neurophysiology 102(4):2176-2183 2009; Akiyama T et al., The Journal of neuroscience: the official journal of the Society for Neuroscience 29(20):6691-6699 (2009)] was used to identify and isolate chloroquine-responsive units. Our search strategy was intended to maximize the chance of isolating a chloroquine-responsive neuron; it was assumed that such neurons either gave rise to ascending projections, or served as interneurons in segmental scratch-reflex circuitry, and no attempt was presently made to distinguish between these possibilities.
There was no significant effect of any of the antagonists on the baseline activity of superficial dorsal horn neurons that were subsequently show to respond to pruritogens. […] Values prior to, and after administration of each antagonist individually or in combination, are as follows. NK-1 antagonist L-733060: pre-application 0.88 Hz±0.23 (SEM), post-antagonist 0.72 Hz±0.19 (n=10). GRPR antagonist RC-3095: pre-application 0.54 Hz±0.54, post-antagonist: 0.53 Hz±0.53 (n=4). CNQX: pre-application 0.53 Hz±0.14, post-antagonist 0.64 Hz±0.21 (n=22). CNQX+L-733060: pre-application 0.52 Hz±0.17, post-antagonists 0.43 Hz±0.11 (n=26). CNQX+L-733060+RC-3095: pre-application 0.14 Hz±0.06, post-antagonists 0.17 Hz±0.06 (n=9).

[3] = test system: histamine-evoked scratching; experiment: Histamine-evoked scratching behavior after intrathecal antagonists; assay type: in vivo, mice; conditions: intrathecal CNQX 20 nmol, 5 min before id histamine 271 nmol
Excerpt: The fur on the rostral back was shaved and mice were habituated to the Plexiglas recording arena one week prior to testing. For intrathecal injections, either vehicle (saline), the GRP receptor antagonist RC-3095 (0.3 nmol; Sigma-Aldrich, St. Louis Mo.), the NK-1 antagonist L-733060 (22.7 nmol; Tocris Bioscience, Minneapolis, Minn.), the AMPA/kainate antagonist CNQX (20 nmol; Tocris Bioscience), a combination of CNQX (20 nmol) and L-733060 (22.7 nmol), or a combination of RC-3095 (0.3 nmol), CNQX (20 nmol) and L-733060 (22.7 nmol), was administered by lumbar puncture, followed 5 minutes later by id injection (10 μl) of either chloroquine (193 nmol; Sigma-Aldrich) or histamine (271 nmol; Sigma-Aldrich). Microinjections were made id in the nape of the neck using a 30 G needle attached to a Hamilton microsyringe by PE-50 tubing. Immediately after the id injection the mouse was placed into the arena and videotaped from above for 30 min. Generally 3-4 mice were injected and videotaped simultaneously. Immediately after commencing videotaping all investigators left the room.
Videotapes were reviewed by investigators blinded to the treatment, and the number of scratch bouts was counted at 5-minute intervals. […] Hind paw movements directed away from the injection site (e.g., ear-scratching) and grooming movements were not counted. […]

[4] = test system: superficial dorsal horn neurons; experiment: In vivo single-unit recording, topical AITC-evoked firing, spinal superfusion of antagonists; set-up: species or system mice
Protocol: as §1

Q: Which results are given for N#Cc1cc2[nH]c(=O)c(=O)[nH]c2cc1[N+](=O)[O-] [CNQX]?
A: histamine-evoked response of NS units ([1]; NS units, vs vehicle): significantly reduced; histamine-evoked response of WDR units ([1]; WDR units, vs vehicle): significantly reduced; histamine-evoked firing, effect of spinal superfusion ([1]; all units): significantly attenuated histamine-evoked firing to a level not different from that elicited by id injection of vehicle (saline); also recorded: almost completely abolished histamine-evoked firing; baseline neuronal firing rate, post-antagonist ([2]; averaged over 1 min following antagonist application): 0.64 Hz; baseline neuronal firing rate, pre-application ([2]; averaged over 1 min prior to antagonist application): 0.53 Hz; histamine-evoked scratching (scratch bouts/30 minutes) [3]: significantly decreased; also recorded: significantly reduced; also recorded: prevented histamine-evoked scratching behavior; AITC-evoked firing, effect of spinal superfusion ([4]; topical AITC 75%): significantly reduced; Percentages of dorsal horn units that exhibited a decrease of 70% or more in firing rate following spinal superfusion of antagonists ([4]; topical AITC-evoked firing, superfusion 1 min, L-733060 200 μM, CNQX 100 μM): 62% (8/15)

— patent US20180221435A1, “ITCH TREATMENT USING A COMBINATION OF NEUROKININ-1, GASTRIN RELEASING PEPTIDE, AND GLUTAMATE RECEPTOR ANTAGONISTS” (The Regents of the University of California, priority 2013, published 2018)
